Measured values as given in article PMC6273373, “Elucidation of Transport Mechanism of Paeoniflorin and the Influence of Ligustilide, Senkyunolide I and Senkyunolide A on Paeoniflorin Transport through Mdck-Mdr1 Cells as Blood–Brain Barrier in Vitro Model” (Molecules, 2016).
Each block holds one compound with its values, some of them ahead of it.

Columns and labels:
P-gp (MDR1) = test: Transport of PF across MDCK-MDR1 cell monolayers (BBB in vitro model), LC-MS/MS; type: in vitro ADME, canine; settings: dog, MDCK-MDR1, pH 7.4
Experimental: (§1) Cell monolayers were pre-incubated in Hank's buffered salt solution (HBSS, pH 7.4) for 30 min at 37 °C. Transepithelial electrical resistance (TEER) values were measured across the monolayers using a Millipore Millicell ERS system equipped with chopstick electrodes (Millipore Corporation, Billerica, MA, USA). […] To measure apical (A)→basolateral (B) transporter, 0.5 mL of drug solution was added in A side and 1.5 mL of HBSS in B side. Basolateral (B)→apical (A) transporter was evaluated adding 1.5 mL of drug solution in B side and 0.5 mL of HBSS in A side. […] Each measurement was evaluated in triplicate. Cells were incubated in a 37 °C shaking incubator. […] The supernatants were transferred to autosampler vials and injected into the LC-MS system. An HPLC system consisting of a solvent-delivery system […], an autosampler SIL-30 AC, a column oven CTO-30 AC, a solvent degasser DGU-20A3 and a controller CBM-20A from […] was used in the study. Separation was conducted using a Phenomenex Kinetex NB-C18 (100 × 3.0 mm, 2.6 μm, Torrance, CA, USA). The column oven was maintained at 30 °C. The mobile phase was water as mobile phase A and acetonitrile as mobile phase B. […] The injection volume was set at 5 μL. The MS analysis was performed on a 4500 QTRAPTM system from Applied Biosystems (AB Sciex) equipped with Turbo V sources and Turbo IonsprayTM interface. Electrospray ionization was performed in negative mode. The mass spectrometric parameters were optimized as: Turbo Ion Spray (TIS) temperature, 650 °C; ion spray voltage, -4500 V; curtain gas, nitrogen, 30; nebulizing gas, 50; TIS gas, 50; declustering potential, -130 eV for PF, 0 eV for internal standard (IS, gastrodin); collision energy, -30 eV for PF, -35 eV for IS. […] Analyst SoftwareTM (version 1.6.1) was used to process the obtained data. […] The efflux ratio (ER) was calculated according to the following Equation (4): (4) […]→BL

[1] = as above; type: in vitro ADME, canine; settings: dog
Experimental: as §1

[2] = test system: MDCK-MDR1 cell monolayers; test: as above; type: in vitro ADME, canine
Experimental: as §1

P-gp [3] = test: as above; type: in vitro ADME, canine; settings: dog, MDCK-MDR1, pH 7.4, 400 μg/mL PF + verapamil (P-gp inhibitor), mean ± SD (n = 3)
Experimental: as §1

P-gp [4] = test: Western blot of P-gp expression in MDCK-MDR1 cells; type: cell-based, canine; settings: 8 hours
Experimental: Cells treated with different concentrations of LIG, SENA and SENI for 8 hours were subject to Western blot assay. Proteins were extracted from whole cell lysates and separated by sodium dodecyl sulfate–polyacrylamide gel electrophoresis, then transferred to a polyvinylidene fluoride (PVDF) membrane. The following primary antibodies were used: rabbit anti-P-gp (1:1000; Abcam, Cambridge, MA, USA) and mouse anti-β-actin (1:2000; Abcam). Membranes were then incubated with the horseradish peroxidase-conjugated secondary anti-bodies (1:5000; Abcam). The transferred proteins were incubated with enhanced chemiluminescence (ECL) substrate solution and visualized with the Image J program (Bio-Rad, Richmond, CA, USA). The relative levels were quantified densitometrically by using the Quantity One software (Bio-Rad Laboratories) and calculated according to the reference bands of β-actin.

MDCK-MDR1 monolayers = test: Transepithelial electrical resistance (TEER) before and after permeation; type: cell-based, canine; settings: after versus before permeation
Experimental: Cell monolayers were pre-incubated in Hank’s buffered salt solution (HBSS, pH 7.4) for 30 min at 37 °C. Transepithelial electrical resistance (TEER) values were measured across the monolayers using a Millipore Millicell ERS system equipped with chopstick electrodes (Millipore Corporation, Billerica, MA, USA). Approximate MDCK-MDR1 values ranged from 500 to 800 Ω·cm^2. To measure apical (A)→basolateral (B) transporter, 0.5 mL of drug solution was added in A side and 1.5 mL of HBSS in B side. Basolateral (B)→apical (A) transporter was evaluated adding 1.5 mL of drug solution in B side and 0.5 mL of HBSS in A side. […] Transepithelial electrical resistance (TEER) of the monolayers was measured with the EVOM instrument (Millipore Corporation). The TEER of untreated cells and cells treated with LIG, SENI and SENA was determined in HBSS before and after the experiment. The measured TEER before the experiment was set as 100% and all other values were calculated according to this.

[5] = enhancer 20 µg/mL with 400 µg/mL PF, versus PF alone
[6] = enhancer 40 µg/mL with 400 µg/mL PF, versus PF alone
[7] = enhancer 80 µg/mL with 400 µg/mL PF, versus PF alone

efflux ratio at 150 min, 100 μg/mL (P-gp (MDR1)): 2.22
efflux ratio at 150 min, 200 μg/mL (P-gp (MDR1)): 2.13
efflux ratio at 150 min, 400 μg/mL (P-gp (MDR1)): 2.21
efflux ratio at 150 min, 800 μg/mL (P-gp (MDR1)): 2.01
Papp A→B at 150 min, 400 μg/mL ([1]; MDCK-MDR1, pH 7.4, 400 μg/mL PF + 2.5 mmol/L EDTA-Na2, mean ± SD (n = 3)): 2.74 ± 0.212 ×10⁻⁶ cm/s
Papp A→B at 150 min, 100 μg/mL ([1]; MDCK-MDR1, pH 7.4, PF 100 μg/mL, MDCK-MDR1 monolayers, mean ± SD (n = 3)): 0.697 ± 0.053 ×10⁻⁶ cm/s
Papp A→B at 150 min, 200 μg/mL ([1]; MDCK-MDR1, pH 7.4, PF 200 μg/mL, MDCK-MDR1 monolayers, mean ± SD (n = 3)): 0.691 ± 0.082 ×10⁻⁶ cm/s
Papp A→B at 150 min, 400 μg/mL ([1]; MDCK-MDR1, pH 7.4, PF 400 μg/mL, MDCK-MDR1 monolayers, mean ± SD (n = 3)): 0.587 ± 0.088 ×10⁻⁶ cm/s
Papp A→B at 150 min, 600 μg/mL ([1]; MDCK-MDR1, pH 7.4, PF 600 μg/mL, MDCK-MDR1 monolayers, mean ± SD (n = 3)): 0.666 ± 0.072 ×10⁻⁶ cm/s
Papp A→B at 150 min, 800 μg/mL ([1]; MDCK-MDR1, pH 7.4, PF 800 μg/mL, MDCK-MDR1 monolayers, mean ± SD (n = 3)): 0.705 ± 0.107 ×10⁻⁶ cm/s
Papp A→B at 150 min ([1]; MDCK-MDR1, pH 7.4, PF 100-800 μg/mL, MDCK-MDR1 cells, read-out: Papp (A→B), range over tested concentrations): 0.587 to 0.705 ×10⁻⁶ cm/s
Papp B→A at 150 min, 100 μg/mL ([1]; pH 7.4, PF 100 μg/mL, MDCK-MDR1 monolayers, mean ± SD (n = 3)): 1.55 ± 0.092 ×10⁻⁶ cm/s
Papp B→A at 150 min, 200 μg/mL ([1]; pH 7.4, PF 200 μg/mL, MDCK-MDR1 monolayers, mean ± SD (n = 3)): 1.48 ± 0.363 ×10⁻⁶ cm/s
Papp B→A at 150 min, 400 μg/mL ([1]; pH 7.4, PF 400 μg/mL, MDCK-MDR1 monolayers, mean ± SD (n = 3)): 1.3 ± 0.084 ×10⁻⁶ cm/s
Papp B→A at 150 min, 600 μg/mL ([1]; pH 7.4, PF 600 μg/mL, MDCK-MDR1 monolayers, mean ± SD (n = 3)): 1.44 ± 0.201 ×10⁻⁶ cm/s
Papp B→A at 150 min, 800 μg/mL ([1]; pH 7.4, PF 800 μg/mL, MDCK-MDR1 monolayers, mean ± SD (n = 3)): 1.42 ± 0.097 ×10⁻⁶ cm/s
Increase of Papp (A→B) of PF in comparison with the non-EDTA-Na2 added ([2]; 400 μg/mL PF with 2.5 mmol/L EDTA-Na2): about five
Increase of Papp (A→B) of PF in comparison with the non-verapamil added ([2]; 400 μg/mL PF with verapamil): about 1.2 fold
ER (B→A/A→B) ([2]; PF 600 μg/mL, MDCK-MDR1 monolayers): 2.156
B→A/A→B permeability ER ([2]; PF, all tested concentrations, MDCK-MDR1 cells): more than 2
Papp A→B at 150 min, 400 μg/mL (P-gp [3]): 0.707 ± 0.062 ×10⁻⁶ cm/s
SMILES: C[C@@]12C[C@@]3(O)O[C@@H](O1)[C@]1(COC(=O)c4ccccc4)[C@H]3C[C@@]12O[C@@H]1O[C@H](CO)[C@@H](O)[C@H](O)[C@H]1O [PF, paeoniflorin]

Effect on A→B transport (Papp/flux) of PF [2, 5]: significantly increased
Effect on A→B transport (Papp/flux) of PF [2, 6]: significantly increased
Effect on A→B transport (Papp/flux) of PF [2, 7]: significantly increased
SMILES: CCCCC1OC(=O)C2=C1CCC=C2 (stereo not shown) [SENA, senkyunolide A]
Increase of the transport of PF ([2]; enhancer 80 µg/mL with 400 µg/mL PF, A→B, versus PF alone): approximately 109%
P-gp expression versus control group (P-gp [4]; 20 μg/mL): significantly down-regulated
P-gp expression versus control group (P-gp [4]; 40 μg/mL): markedly down-regulated
P-gp expression versus control group (P-gp [4]; 80 μg/mL): markedly down-regulated
TEER change during permeation studies (MDCK-MDR1 monolayers; 20 μg/mL with 400 μg/mL PF): markedly decreased
TEER change during permeation studies (MDCK-MDR1 monolayers; 40 μg/mL with 400 μg/mL PF): markedly decreased
TEER change during permeation studies (MDCK-MDR1 monolayers; 80 μg/mL with 400 μg/mL PF): significantly decreased

Effect on A→B transport (Papp/flux) of PF [2, 5]: significantly increased
Effect on A→B transport (Papp/flux) of PF [2, 6]: significantly increased
Effect on A→B transport (Papp/flux) of PF [2, 7]: significantly increased
SMILES: CCC/C=C1\OC(=O)C2=C1CC[C@H](O)[C@H]2O [SENI, senkyunolide I]
P-gp expression versus control group (P-gp [4]; 20 μg/mL): markedly down-regulated
P-gp expression versus control group (P-gp [4]; 40 μg/mL): markedly down-regulated
P-gp expression versus control group (P-gp [4]; 80 μg/mL): markedly down-regulated
TEER change during permeation studies (MDCK-MDR1 monolayers; 80 μg/mL with 400 μg/mL PF): markedly decreased

Effect on A→B transport (Papp/flux) of PF [2, 6]: significantly increased
Effect on A→B transport (Papp/flux) of PF [2, 7]: significantly increased
SMILES: CCC/C=C1\OC(=O)C2=C1CCC=C2 [LIG, ligustilide]
P-gp expression versus control group (P-gp [4]; 20 μg/mL): significantly down-regulated
P-gp expression versus control group (P-gp [4]; 40 μg/mL): markedly down-regulated
P-gp expression versus control group (P-gp [4]; 80 μg/mL): markedly down-regulated
TEER change during permeation studies (MDCK-MDR1 monolayers; 20 μg/mL with 400 μg/mL PF): significantly decreased
TEER change during permeation studies (MDCK-MDR1 monolayers; 40 μg/mL with 400 μg/mL PF): markedly decreased
TEER change during permeation studies (MDCK-MDR1 monolayers; 80 μg/mL with 400 μg/mL PF): markedly decreased
